In paper PMC7340851 (Bioorganic & medicinal chemistry, 2020):
Like-named read-outs stand apart in the source and are kept apart here.

Assays:
[1] = target: D5R (Homo sapiens, UniProt P21918); experiment: D5R radioligand binding assay; settings: triplicate; na = not active (<50% inhibition in a primary assay)
[2] = target: 5-HT6R (Homo sapiens, UniProt P50406); experiment: 5-HT6R radioligand binding assay; settings: [3H]LSD radioligand; triplicate; na = not active (<50% inhibition in a primary assay)
5-HT6R, sequence (P50406 whole entry): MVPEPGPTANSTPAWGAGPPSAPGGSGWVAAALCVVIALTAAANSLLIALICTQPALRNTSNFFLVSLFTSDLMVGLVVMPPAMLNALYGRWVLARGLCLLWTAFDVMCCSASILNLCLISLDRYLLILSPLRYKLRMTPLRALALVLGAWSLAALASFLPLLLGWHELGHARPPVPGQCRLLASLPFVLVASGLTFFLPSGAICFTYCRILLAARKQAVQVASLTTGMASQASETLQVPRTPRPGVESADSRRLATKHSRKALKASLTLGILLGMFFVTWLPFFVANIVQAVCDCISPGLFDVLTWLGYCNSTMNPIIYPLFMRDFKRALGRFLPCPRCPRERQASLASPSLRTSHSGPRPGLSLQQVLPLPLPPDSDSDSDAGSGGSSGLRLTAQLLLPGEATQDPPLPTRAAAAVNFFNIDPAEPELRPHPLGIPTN

[3] = target: 5-HT7AR (Homo sapiens, UniProt P34969); experiment: 5-HT7AR radioligand binding assay
5-HT7AR, sequence (P34969 1-445 isoform P34969-2): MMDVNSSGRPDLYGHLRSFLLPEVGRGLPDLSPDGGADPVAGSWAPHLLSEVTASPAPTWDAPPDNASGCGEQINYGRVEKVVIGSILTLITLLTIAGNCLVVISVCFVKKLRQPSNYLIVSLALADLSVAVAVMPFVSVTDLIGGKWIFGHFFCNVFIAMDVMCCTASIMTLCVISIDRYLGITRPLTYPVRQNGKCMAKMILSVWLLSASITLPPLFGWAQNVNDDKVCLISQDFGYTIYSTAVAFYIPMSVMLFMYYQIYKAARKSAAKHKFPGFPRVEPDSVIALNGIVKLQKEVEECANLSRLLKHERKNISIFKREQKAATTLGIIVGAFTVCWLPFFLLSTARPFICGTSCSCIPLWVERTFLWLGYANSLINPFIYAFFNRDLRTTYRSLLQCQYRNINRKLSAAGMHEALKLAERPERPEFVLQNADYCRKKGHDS

[4] = target: 5-HT2AR (Homo sapiens, UniProt P28223); experiment: 5-HT2AR radioligand binding assay
5-HT2AR, sequence (P28223 whole entry): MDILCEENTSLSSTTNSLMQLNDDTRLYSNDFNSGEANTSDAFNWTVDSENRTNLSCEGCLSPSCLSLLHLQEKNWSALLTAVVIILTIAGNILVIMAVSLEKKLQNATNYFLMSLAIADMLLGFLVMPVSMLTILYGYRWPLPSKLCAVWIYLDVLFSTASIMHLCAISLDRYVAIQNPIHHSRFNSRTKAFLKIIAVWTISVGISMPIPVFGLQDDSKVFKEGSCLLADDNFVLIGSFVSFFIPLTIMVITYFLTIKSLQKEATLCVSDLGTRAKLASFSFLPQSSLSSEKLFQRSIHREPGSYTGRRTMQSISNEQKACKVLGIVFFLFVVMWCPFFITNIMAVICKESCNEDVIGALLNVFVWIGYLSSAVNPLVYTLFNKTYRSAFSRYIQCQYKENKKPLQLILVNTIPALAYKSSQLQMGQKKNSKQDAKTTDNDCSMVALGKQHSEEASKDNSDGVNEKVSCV

[5] = [3H]Ketanserin radioligand, triplicate, na = not active (<50% inhibition in a primary assay)

D5R, sequence (P21918 whole entry): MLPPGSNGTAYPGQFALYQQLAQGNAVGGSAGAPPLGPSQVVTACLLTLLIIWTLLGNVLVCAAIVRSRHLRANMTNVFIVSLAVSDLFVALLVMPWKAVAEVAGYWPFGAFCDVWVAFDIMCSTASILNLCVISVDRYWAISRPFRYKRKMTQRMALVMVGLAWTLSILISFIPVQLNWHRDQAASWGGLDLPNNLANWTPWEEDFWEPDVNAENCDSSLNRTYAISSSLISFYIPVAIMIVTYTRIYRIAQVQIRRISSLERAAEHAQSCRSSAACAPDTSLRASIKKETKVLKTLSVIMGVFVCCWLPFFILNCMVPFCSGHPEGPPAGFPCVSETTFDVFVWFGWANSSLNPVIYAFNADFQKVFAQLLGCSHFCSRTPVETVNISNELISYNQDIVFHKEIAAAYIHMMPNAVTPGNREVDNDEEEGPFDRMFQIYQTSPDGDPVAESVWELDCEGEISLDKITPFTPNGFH

Q: With `CN1CCc2cccc3c2C1Cc1ccc(NC(N)=O)cc1-3` (centres unmarked) [Compound 29, 1-(6-methyl-5,6,6a,7-tetrahydro-4H-dibenzo[de,g]quinolin-10-yl)urea] as the molecule, how does the “Ki D5R” value [1] read?
A: Its value is “lacked affinity”.

Q: What does the source list for `CCCN1CCc2cccc3c2C1Cc1ccc(NC(C)=O)cc1-3` (centres unmarked) [Compound 25, N-(6-propyl-5,6,6a,7-tetrahydro-4H-dibenzo[de,g]quinolin-10-yl)acetamide]?
A: Ki 5-HT6R [2]: no affinity; Ki 5-HT7AR ([3]; [3H]LSD radioligand, triplicate, na = not active (<50% inhibition in a primary assay)): no affinity; Ki 5-HT2AR [4, 5]: no affinity

Q: `COc1cc2c3c(c1OC)-c1cc(NS(C)(=O)=O)ccc1CC3N(C)CC2` (centres unmarked) [Compound 15, N-(1,2-dimethoxy-6-methyl-5,6,6a,7-tetrahydro-4H-dibenzo[de,g]quinolin-10-yl)methanesulfonamide] was tested. Which “Ki 5-HT2AR” value [4, 5] did it give?
A: Its value is “lack of affinity”.

Q: For `CN1CCc2cccc3c2C1Cc1ccc2nc(N)sc2c1-3` (centres unmarked) [Compound 33a, 7-methyl-6a,7,8,9-tetrahydro-6H-benzo[de]thiazolo[4’,5’:5,6]benzo[1,2-g]quinolin-2-amine], which “Ki D5R” value [1] is on record?
A: The value was “no affinity”.

Q: And the “selectivity for 5-HT7AR versus 5-HT1AR” value ([3]; ratio of binding affinities)?
A: The value was “approximately 19 fold”.

Q: For `CN(C)c1ccc2c(c1)-c1cccc3c1C(C2)N(C)CC3` (centres unmarked) [Compound 31, N,N,6-trimethyl-5,6,6a,7-tetrahydro-4H-dibenzo[de,g]quinolin-10-amine], which “Ki 5-HT6R” value [2] is on record?
A: Its value is “fairly weak affinity”.

Q: What about the “Ki 5-HT2AR” value [4] of the same molecule?
A: The value was “fairly weak affinity”.

Q: `COc1cc2c3c(c1OC)-c1cc(NC(N)=O)ccc1CC3N(C)CC2` (centres unmarked) [Compound 19, 1-(1,2-dimethoxy-6-methyl-5,6,6a,7-tetrahydro-4H-dibenzo[de,g]quinolin-10-yl)urea] was tested. Which “Ki 5-HT2AR” value [4, 5] did it give?
A: Its value is “lack of affinity”.

Q: With `CCCN1CCc2cccc3c2C1Cc1cc2sc(N)nc2cc1-3` (centres unmarked) [Compound 34b, 6-propyl-5,6,6a,7-tetrahydro-4H-benzo[de]thiazolo[5’,4’:4,5]benzo[1,2-g]quinolin-10-amine] as the molecule, how does the “Ki D5R” value [1] read?
A: Its value is “lack of affinity”.
